Experiment: Effect on body weight of guinea pigs (Example 23)
Type: in vivo, guinea pig
Settings: 4 days after two successive dosing, 100 μg/kg s.c. (albumin 80 mg/kg), compared with saline group
Description: 44 male healthy guinea pigs were provided, and the body weight of each guinea pig was about 300 g.

With “chicken ovalbumin [chicken ovalbumin, albumin group in the guinea pig allergy test]” the “decrease of body weight” value was “did not decrease”.

— US8575097B2, “Exendin variant and conjugate thereof” (Pegbio Co., Ltd., priority 2009, dated 2013)
